# Measurements: patent US8163509B2, “Biological markers predictive of anti-cancer response to insulin-like growth factor-1 receptor kinase inhibitors” (The Regents of the University of Colorado, A Body Corporate, priority 2008, dated 2012)
# Where two headings read alike, the source gives them in different places.
# Legend:
# Experiment in all cases: SRB proliferation assay, 72 h
# CaCo2 CRC cell line = assay type: cell-based; details: Homo sapiens
# Description: (§1) FIG. 17: Results of cell proliferation assay on the panel of 27 CRC cell lines. Cell proliferation was evaluated by SRB following exposure to OSI-906 for 72 hours. Cells were plated at an optimized density in 96-well plates, incubated overnight at 37° C., and then exposed to a serial dilution of OSI-906. After 72 hours incubation, cells were fixed with trichloroacetic acid and an SRB was performed as described in materials and methods.
# (§2) Cell Lines and Culture. […] human colon cancer cell lines, were obtained from American Type Culture Collection (Manassas, Va.). Cells were grown in RPMI medium supplemented with 10% fetal bovine serum, 1% non-essential amino acids, 1% penicillin/streptomycin and were maintained at 37° C. in an incubator under an atmosphere containing 5% CO2. The cells were routinely screened for the presence of mycoplasma (MycoAlert, Cambrex Bio Science, Baltimore, Md.) and were exposed to PQIP when they reached approximately 70% confluence.
# (§3) The CRC cell lines were treated with a range of concentrations of PQIP (from 0.05-5 μM) for 72 hours.
# (§4) Cell Lines and Culture: Twenty-seven human colon cancer cell lines, were obtained from American Type Culture Collection (Manassas, Va.). The GEO cells were a generous gift from Dr. Fortunato Ciardiello (Cattedra di Oncologia Medica, Dipartimento Medico-Chirurgico di Internistica Clinica e Sperimentale “F Magrassi e A Lanzara,” Seconda Università degli Studi di Napoli, Naples). All cells except GEO were grown in RPMI medium supplemented with 10% fetal bovine serum, 1% non-essential amino acids, 1% penicillin/streptomycin and were maintained at 37° C. in an incubator under an atmosphere containing 5% CO2. GEO cells were grown in DMEM/F12 supplemented with 10% fetal bovine serum, 1% non-essential amino acids, 1% penicillin/streptomycin. The cells were routinely screened for the presence of mycoplasma (MycoAlert, Cambrex Bio Science, Baltimore, Md.) and were exposed to OSI-906 when they reached approximately 70% confluence. OSI-906 was provided by OSI Pharmaceuticals, (Boulder, Colo.) and prepared as a 10 mM stock solution in DMSO.
# (§5) Assessment of responsiveness of a panel of CRC cell lines to OSI-906. In order to assess CRC cell lines with differential sensitivity to OSI-906, a panel of 27 CRC cell lines were exposed to increasing concentrations of OSI-906 and proliferation was measured using the SRB assay as described previously (Pitts, T M, et al. Mol Cancer Ther 2009; 8(2):342-9). As depicted in FIG. 17 there was a wide range of sensitivity of the CRC cell lines to OSI-906, the majority of the cell lines failing to reach an IC50 up to 5 μmol/L, but a clear distinction could be made between the cell lines that were sensitive and the cell lines that were resistant.
# Colo205 CRC cell line = assay type: cell-based; details: Homo sapiens, COLO 205
# Description: as §1, §2, §3, §4, §5
# HCT8 CRC cell line = assay type: cell-based; details: Homo sapiens
# Description: as §1, §2, §3, §4, §5
# LoVo CRC cell line = assay type: cell-based; details: Homo sapiens
# Description: as §1, §2, §3, §4, §5
# NCI-H508 CRC cell line = assay type: cell-based; details: Homo sapiens
# Description: as §1, §2, §3, §4, §5
# SW1417 CRC cell line = assay type: cell-based; details: Homo sapiens
# Description: as §1, §2, §3, §4, §5
# SW1463 CRC cell line = assay type: cell-based; details: Homo sapiens
# Description: as §1, §2, §3, §4, §5
# SW403 CRC cell line = assay type: cell-based; details: Homo sapiens
# Description: as §1, §2, §3, §4, §5
# SW48 CRC cell line = assay type: cell-based; details: Homo sapiens
# Description: as §1, §2, §3, §4, §5
# HCT116 CRC cell line = assay type: cell-based, human; details: for IC50: Homo sapiens, HCT-116
# Description: as §1, with “Cell” for “FIG. 17: Results of cell proliferation assay on the panel of 27 CRC cell lines. Cell”
# as §2
# Multiple clones from the same transfection were pooled and grown under puromycin selection.
# Cytotoxicity and Combination Effects: HT29, HCT116, RKO, and LS513 CRC cell lines were exposed to 0-10 nM SN-38 (7-Ethyl-10-hydroxy-camptothecin), 0-10 μM Oxaliplatin, or 0-50 μM 5-Fluorouracil (5-FU) for 72 hours. HT29, HCT116, RKO, and LS513 CRC cell lines were exposed to PQIP in combination with SN-38, Oxaliplatin or 5-FU. In all combinations, cells were seeded in 96-well flat bottomed plates and left overnight. PQIP and chemotherapy were both added for 72 hours. The results of the combinations were analyzed by the Chou and Talalay method with Calcusyn (Biosoft, Ferguson, Mo.).
# as §3
# To characterize the potential functionality that the selected genes may play in the sensitivity or resistance to PQIP, resistant and sensitive CRC cell lines were stably transfected with specific shRNA, treated with increasing concentrations of PQIP and proliferation assays performed to observe, if when manipulated, these genes alter responsiveness (i.e. the S or R phenotype). […] Both of these transfected cell lines were assayed for proliferation as described above.
# Therefore, we investigated the effect of PQIP in combination with standard chemotherapy for CRC. […] Cells were exposed to PQIP and chemotherapy (SN38, oxaliplatin, or 5-Fluorouracil) concurrently for 72 h and combinations were assessed using the SRB assay.
# Cell Lines and Culture: Twenty-seven human colon cancer cell lines, were obtained from American Type Culture Collection (Manassas, Va.). The GEO cells were a generous gift from Dr. Fortunato Ciardiello (Cattedra di Oncologia Medica, Dipartimento Medico-Chirurgico di Internistica Clinica e Sperimentale “F Magrassi e A Lanzara,” Seconda Università degli Studi di Napoli, Naples). All cells except GEO were grown in RPMI medium supplemented with 10% fetal bovine serum, 1% non-essential amino acids, 1% penicillin/streptomycin and were maintained at 37° C. in an incubator under an atmosphere containing 5% CO2.
# [1] = 72 hours, read-out: IC50, proliferation, OSI-906 (SRB)
# [2] = 72 hours, 0.05-5 μM, read-out: IC50, growth inhibition by PQIP (SRB)
compound,measurement,setting,value
"C[C@]1(O)C[C@@H](c2nc(-c3ccc4ccc(-c5ccccc5)nc4c3)c3c(N)nccn32)C1 [OSI-906, cis-3-[8-amino-1-(2-phenyl-quinolin-7-yl)-imidazo[1,5-a]pyrazin-3-yl]-1-methyl-cyclobutanol]",IC50,"CaCo2 CRC cell line; Caco-2, 72 hours, read-out: IC50, proliferation, OSI-906 (SRB)",≤ 1.5 µM
same,IC50,"CaCo2 CRC cell line; Caco-2, read-out: S/I/R to OSI-906",≤ 1.5 µM
same,IC50,"Colo205 CRC cell line; CoLo205, read-out: S/I/R to OSI-906",≤ 1.5 µM
same,IC50,"Colo205 CRC cell line; Colo205, 72 hours, read-out: IC50, proliferation, OSI-906 (SRB)",≤ 1.5 µM
same,IC50,"HCT8 CRC cell line; HCT-8, 72 hours, read-out: IC50, proliferation, OSI-906 (SRB)",> 5 µM
same,IC50,"HCT8 CRC cell line; HCT-8, read-out: S/I/R to OSI-906",> 5 µM
same,IC50,LoVo CRC cell line; [1],> 5 µM
same,IC50,LoVo CRC cell line; read-out: S/I/R to OSI-906,> 5 µM
same,IC50,NCI-H508 CRC cell line; [1],> 5 µM
same,IC50,NCI-H508 CRC cell line; read-out: S/I/R to OSI-906,> 5 µM
same,IC50,SW1417 CRC cell line; [1],> 5 µM
same,IC50,SW1417 CRC cell line; read-out: S/I/R to OSI-906,> 5 µM
same,IC50,SW1463 CRC cell line; [1],> 5 µM
same,IC50,SW1463 CRC cell line; read-out: S/I/R to OSI-906,> 5 µM
same,IC50,"SW403 CRC cell line; SW-403, 72 hours, read-out: IC50, proliferation, OSI-906 (SRB)",> 5 µM
same,IC50,"SW403 CRC cell line; SW-403, read-out: S/I/R to OSI-906",> 5 µM
same,IC50,SW48 CRC cell line; [1],> 5 µM
same,IC50,SW48 CRC cell line; read-out: S/I/R to OSI-906,> 5 µM
same,IC50,"HCT116 CRC cell line; HCT116, 72 hours, read-out: IC50, proliferation, OSI-906 (SRB)",> 5 µM
same,IC50,"HCT116 CRC cell line; HCT116, read-out: S/I/R to OSI-906",> 5 µM
same,IC50,"HCT116 CRC cell line; HCT116 stably transfected with MT2A shRNA, read-out: IC50, proliferation, OSI-906 (SRB) after MT2A shRNA knockdown",5 µM
"CN1CCN([C@H]2C[C@@H](c3nc(-c4ccc5ccc(-c6ccccc6)nc5c4)c4c(N)nccn43)C2)CC1 [PQIP, cis-3-[3-(4-Methyl-piperazin-1-yl)-cyclobutyl]1-(2-phenyl-quinolin-7-yl)-imidazo[1,5-a]pyrazin-8-ylamine]",IC50,"CaCo2 CRC cell line; Caco-2, 72 hours, 0.05-5 μM, read-out: IC50, growth inhibition by PQIP (SRB)",> 5 µM
same,IC50,"Colo205 CRC cell line; Colo205, 72 hours, 0.05-5 μM, read-out: IC50, growth inhibition by PQIP (SRB)",< 0.5 µM
same,IC50,"HCT8 CRC cell line; HCT-8, 72 hours, 0.05-5 μM, read-out: IC50, growth inhibition by PQIP (SRB)",> 5 µM
same,IC50,LoVo CRC cell line; [2],> 5 µM
same,IC50,NCI-H508 CRC cell line; [2],> 5 µM
same,IC50,SW1417 CRC cell line; [2],> 5 µM
same,IC50,SW1463 CRC cell line; [2],> 5 µM
same,IC50,"SW403 CRC cell line; SW-403, 72 hours, 0.05-5 μM, read-out: IC50, growth inhibition by PQIP (SRB)",> 5 µM
same,IC50,SW48 CRC cell line; [2],> 5 µM
same,"combination index (CI) values, PQIP and chemotherapy","HCT116 CRC cell line; HCT116, PQIP with SN38, oxaliplatin or 5-Fluorouracil concurrently 72 h, nearly all combinations, Chou and Talalay",0.6-1.4
same,shift in sensitivity to PQIP after shRNA knockdown,HCT116 CRC cell line; HCT116 transfected with MT2A shRNA vs parental or scramble shRNA control,left shift in sensitivity
same,shift in sensitivity to PQIP after shRNA knockdown,HCT116 CRC cell line; HCT116 transfected with caldesmon shRNA vs parental or scramble shRNA control,no left shift in sensitivity
same,IC50,"HCT116 CRC cell line; HCT116, 72 hours, 0.05-5 μM, read-out: IC50, growth inhibition by PQIP (SRB)",> 5 µM
